Measured values taken from patent US8147883B1, “Use of a plant oil product as an agent for increasing the synthesis of skin lipids” (Laboratoires Expanscience, priority 1999, dated 2012).
Several values for one entry are separate records, joined by “and”; a condition that tells them apart may be missing. Identical values can stand only once. Marks after values point to notes of the source that are not given here.

Key:
[1] = system: disks of whole human skin; assay: Nature of the neosynthesized epidermal lipids (thin layer chromatography of 14C-labeled lipids) in whole human skin disks; assay type: cell-based; design: neosynthesis of cholesteryl sulfate, percentage of the control group: concentration or dose not given beside the values
Method: (§1) The study is performed in vitro in an organotypical model of whole human skin in culture. Two techniques successively used: • measurement of the incorporation of acetate radiolabeled with carbon 14 into the neosynthesized epidermal lipids in toto; • analysis by thin layer chromatography to separate the main classes of neosynthesized radiolabeled epidermal lipids.
(§2) A fragment of human skin was collected after an abdominal plastic surgery-operation. This was performed on a person (subject I0129). Skin disks 8 mm in diameter were cut out using a sample punch.
(§3) The skin disks are placed in gondolas. The gondolas are placed in culture wells containing MCF medium, composed of MEM/M199 medium (3/4, 1/4; v/v) supplemented with penicillin (50 IU/ml), streptomycin (50 μg/ml), sodium bicarbonate (0.2%, w/v) and FCS (2%, v/v).
(§4) The test products are tested undiluted. They are placed at the center of each human skin disk, in a proportion of 10 mg/cm^2. The incubation medium for the human skin disks (MIF medium) is composed of MCF medium containing 1 μCi/ml of acetate labeled with carbon 14 (Amersham, specific activity: 57 mCi/mmol).
(§5) The lactic acid is used in topical application (10 mg/cm^2).
(§6) The human skin disks are incubated in the presence of the test products and the reference products for 18 hours at 37° C. in a humid atmosphere containing 5% CO2.
(§7) Each experimental condition is performed in quadruplicate.
Starting with the samples of extracted lipids, 20 μl aliquots, corresponding to 3 700 cpm, are placed on silica 60 (Merck) chromatography plates. These plates are developed in three successive solvents: • 38/2/10 chloroform/acetone/methanol (v/v/v), • 40/5/5 chloroform/acetone/methanol (v/v/v), • 36/10/3/1 chloroform/ethyl acetate/ether/methanol (v/v/v/v).
This system makes it possible to separate the cholesteryl sulfate, the cerebrosides, the ceramides, the cholesterol and the tri-+diglycerides. The most polar lipids, referred to hereinbelow as “polar lipids”, remain on the base line.
The silica plates are then placed in exposure with films for autoradiography for 15 days (Amersham, Hyperfilm beta max).
The position of the various classes of lipids—polar lipids, cholesteryl sulfate, cerebrosides, ceramides 1 and 2, cholesterol and tri-+diglycerides—is determined using suitable standards.
The results are expressed as percentages of the radioactivity of the total lipids neosynthesized and deposited on the TLC.

[2] = system: disks of whole human skin; assay: Neosynthesis of the total epidermal lipids (14C-acetate incorporation) in organotypical model of whole human skin in culture; assay type: cell-based; details: incubation 18 hours
Method: as §1, §2, §3, §4, §5, §6, §7
At the end of the incubation, the human skin disks are rinsed thoroughly with PBS buffer. The epidermis of each skin disk is dissociated from the dermis by means of a controlled heat shock (MilliQ water, 2 min, 62° C.) The epidermises thus dissociated are digested with trypsin (ICN, 1%, w/v) overnight at 37° C. The cell dissociation is facilitated by the action of ultrasound. […]
The radioactivity of each sample, corresponding to the amount of acetate incorporated into the neosynthesized lipids, is measured by liquid scintillation. […]

[3] = percentage of the radiolabeled total lipids applied onto the TLC, mean of 4 disks, 18 hours
[4] = percentage of the radiolabeled total lipids applied onto the TLC, single disks, 18 hours

In the case of “EGF: epidermal growth factor obtained from R&D Systems, reference product tested at 10 ng/ml”, the “neosynthesis of ceramide 1, percentage of the control group” value ([1]; 18 hours) is reported as 120%, the “neosynthesis of ceramide 2, percentage of the control group” value ([1]; 18 hours) is reported as 155% and the “neosynthesis of cerebrosides, percentage of the control group” value ([1]; 18 hours) is reported as 125%. The “neosynthesis of cholesterol, percentage of the control group” value ([1]; 18 hours) was 128%, the “neosynthesis of cholesteryl sulfate, percentage of the control group” value ([1]; 18 hours) was 54% and the “neosynthesis of polar lipids, percentage of the control group” value ([1]; 18 hours) was 119%. For the same substance, the “neosynthesis of ceramide 1, mean” value [1, 3] was 2.72%, the “neosynthesis of ceramide 2, mean” value [1, 3] was 3.00* % and the “neosynthesis of cerebrosides, mean” value [1, 3] was 3.87%. The “neosynthesis of cholesteryl sulfate, mean” value [1, 3] was 3.00* %, the “neosynthesis of polar lipids, mean” value [1, 3] was 38.23% and the “neosynthesis of tri- + diglycerides, mean” value [1, 3] was 45.10%. For the same substance, the “neosynthesis of ceramide 1, individual skin disk” value [1, 4] was 2.02% and 1.41% and 3.41% and 4.02%, the “neosynthesis of ceramide 2, individual skin disk” value [1, 4] was 3.81% and 2.38% and 2.74% and 3.05% and the “neosynthesis of cerebrosides, individual skin disk” value [1, 4] was 2.87% and 3.82% and 4.77% and 4.02%. For the same substance, the “neosynthesis of cholesterol, individual skin disk” value [1, 4] was 7.07% and 9.46% and 7.86% and 9.99%, the “neosynthesis of cholesteryl sulfate, individual skin disk” value [1, 4] was 2.31% and 3.69% and 3.44% and 2.57% and the “neosynthesis of polar lipids, individual skin disk” value [1, 4] was 57.27% and 34.42% and 27.69% and 33.53%. For the same substance, the “neosynthesis of tri- + diglycerides, individual skin disk” value [1, 4] was 42.67% and 44.82% and 50.08% and 42.83%, the “increase of the neosynthesis of ceramide 2” value ([1]; versus control) was 55% and the “reduction of the neosynthesis of cholesteryl sulfate” value ([1]; versus control) was 46%. The “neosynthesis of the total epidermal lipids, percentage of the control group” value ([2]; topical 10 mg/cm2, EGF 10 ng/ml) was 122%, the “neosynthesis of the total epidermal lipids, mean” value ([2]; mean of 4 disks, topical 10 mg/cm2, EGF 10 ng/ml) was 4080.02 cpm/mg of epidermis and the “neosynthesis of the total epidermal lipids, individual skin disk” value ([2]; single disks of quadruplicate, compositions and lactic acid undiluted 10 mg/cm2 topical, EGF 10 ng/ml in medium) was 3104.63 cpm/mg of epidermis and 5043.66 cpm/mg of epidermis and 3606.76 cpm/mg of epidermis and 4565.02 cpm/mg of epidermis.
